# Results reported in patent US12492163B2, “9H-fluorene derivatives or their pharmaceutically acceptable salts” (priority 2020, dated 2025).
# Legend:
# mGAT4 = mGAT4 (Mus musculus (Mouse), UniProt P31650); experiment: [3H]GABA uptake inhibition, mGAT4 in HEK293 cells; assay type: cell-based; conditions: GABA reuptake
# Protocol: Exemplary compounds according to the invention were screened at the Ludwig-Maximilian University of Munich to determine the inhibitory ability towards four mouse GAT transporters (mGAT1-mGAT4). […] The biological material was stably transfected human embryonic kidney HEK293 cells, expressing genes to the appropriate transporters. The generated radioactivity was measured with a liquid scintillation counter. […] These determinations were made according to the procedure described in detail in A. Kragler, G. Höfner, K. T. Wanner, Novel parent structures for inhibitors of the murine GABA transporters mGAT3 and mGAT4, Eur. J. Pharmacol. 519 (2005) 43-47.
# ICR-CD1 mice = experiment: Acute toxicity study in mice; assay type: in vivo, Mus musculus; design: key to Tremor / Convulsions / Hyper/Hypoventilation / Drooping eyelids / General exhaustion: mild (+); moderate (++); severe (+++)
# Protocol: The research was carried out at the Department of Toxicology and Military Pharmacy, Faculty of Military Health Sciences in Hradec Kralove, Defense University in Brno in the Czech Republic, at the Biomedical Research Center and at the Department of Clinical Biochemistry of the University Hospital Hradec Kralove in the Czech Republic. All procedures were carried out under the supervision of the Ethics Committee of the Faculty of Military Health Sciences (No. 20/19; MO 215611/2019-684800). Male and female ICR-CD1 strain of domestic mice (Mus musculus) (body weight approx. 20-25 g) were used in the research. The animals were kept in standard, appropriately sized cages, divided into groups of a maximum of 8 animals. The animals in the test groups were administered the test compound intraperitoneally (doses in the acute toxicity study: 10, 20, 40 and 60 mg/kg, dose in the study of pharmacokinetic parameters 10 mg/kg). Control groups received 1% Tween 80.
# The study assesses the toxicity profile of the compound by observation of emerging adverse effects, biochemical parameters analysis and histopathological analysis, and determines the maximum tolerated dose (MTD). Mice were randomly assigned to experimental groups consisting of two males and two females. […] Toxic symptoms were classified as in the previous published study [J. Misik]. Weight loss or reduction in food consumption was assessed according to the FELAS classification [K. L. Chapman] for the first two hours, and then periodically for the next 46 hours. All 48-hour survivors were euthanized. Blood was collected for biochemical analysis and selected organs (kidneys and liver) were collected for histopathological examination. Venous blood was collected in heparinized tubes. Plasma was then separated (3000×g, 5 min, 4° C.) using a centrifuge. The concentration of urea and creatinine as well as the activity of alanine aminotransferase (ALT), aspartate aminotransferase (AST), alkaline phosphatase (ALP), amylase and lactate dehydrogenase (LDH) were determined in an accredited biochemical laboratory. The harvested organs: liver and kidneys were used for standard histopathological examination. Organs were fixed with 10% neutral buffered formalin, processed for histology, and stained with hematoxylin and eosin as in a previous published study [J. Pejchal]. Histopathological changes were assessed microscopically.
# Albino Swiss CD-1 mice = experiment: Passive avoidance task (scopolamine-induced memory disorders); assay type: in vivo, Mus musculus; conditions: scopolamine 1 mg/kg s.c.
# Protocol: The research was conducted at the Department of Pharmacodynamics, Faculty of Pharmacy, Jagiellonian University in Krakow. All procedures were approved by the 1st and 2nd Local Ethics Committee for Animal Experiments in Krakow (consent no. 53/2017 and 250/2019) and were performed in accordance with the applicable European Union regulation (86/609/EEC). Males of two different strains of domestic mice (Mus musculus) were used in the study: Albino Swiss CD-1 (body weight approx. 20-24 g, age approx. 6 weeks) and C57BL/6J mice (body weight approx. 18-22 g, age approx. 6 weeks). The CD-1 strain was used for the passive avoidance, spontaneous mobility and rotating rod tests, while the C57BL/6J mice were used for the Morris water maze and the Barnes' maze. The animals were kept in standard, appropriately sized cages, divided into groups with a maximum of 10 animals. The animals in the study groups in the learning phase were intraperitoneally administered the test compound 1 h before the start of the experiments (doses in the preliminary test, i.e. in the passive avoidance test: 10, 30 and 60 mg/kg), and 30 minutes later, 1 mg/kg of scopolamine subcutaneously. Two control groups were used in the tests to assess the procognitive activity of JT-3—one of them received saline and the other saline and scopolamine.
# The test assesses contextual memory. The apparatus consists of two chambers (white: 26 cm×26 cm×34 cm; dark: 13 cm×7.5 cm×7.5 cm) separated by a door. The test consists of a two-day procedure. On the first day (acquisition phase), test compound or saline was administered to the animals 1 h prior to testing (i.p. administration). In order to induce memory disorders, scopolamine (1 mg/kg, s.c.) was also administered after 30 min. On the first day of testing, the mouse was placed in the white compartment. […] The latency of entry into the dark chamber was measured. […] After 30 s the door between the compartments was opened and, similarly to the acquisition phase, the latency time of entering the dark compartment was measured. […]
# [1] = 10 mg/kg (MTD) i.p., mouse Female1
# [2] = 10 mg/kg (MTD) i.p., mouse Female2
# [3] = 10 mg/kg (MTD) i.p., mouse Male1
# [4] = 10 mg/kg (MTD) i.p., mouse Male2
# [5] = plasma, 10 mg/kg (MTD) i.p., 48 h
# Sequence of mGAT4 (P31650 whole entry): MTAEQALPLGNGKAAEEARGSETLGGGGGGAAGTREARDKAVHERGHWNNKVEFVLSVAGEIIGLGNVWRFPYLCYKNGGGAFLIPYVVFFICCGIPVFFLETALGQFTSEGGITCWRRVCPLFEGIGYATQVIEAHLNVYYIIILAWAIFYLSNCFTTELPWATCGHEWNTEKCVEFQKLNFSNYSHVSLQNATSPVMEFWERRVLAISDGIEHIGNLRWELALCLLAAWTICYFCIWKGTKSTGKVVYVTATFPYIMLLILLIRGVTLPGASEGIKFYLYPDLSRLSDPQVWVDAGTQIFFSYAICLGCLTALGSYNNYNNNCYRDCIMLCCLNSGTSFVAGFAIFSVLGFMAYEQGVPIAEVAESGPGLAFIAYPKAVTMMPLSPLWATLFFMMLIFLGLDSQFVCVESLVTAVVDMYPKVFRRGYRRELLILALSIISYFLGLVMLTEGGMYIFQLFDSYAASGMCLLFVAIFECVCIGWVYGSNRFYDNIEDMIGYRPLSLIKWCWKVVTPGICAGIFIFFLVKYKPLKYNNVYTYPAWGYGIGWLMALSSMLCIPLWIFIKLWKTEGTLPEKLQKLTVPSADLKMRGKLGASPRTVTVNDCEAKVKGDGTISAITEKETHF
compound,measurement,setting,value
"O[C@H](CNCC1CC1)[C@H](Cc1ccccc1)NC1c2ccccc2-c2ccccc21 [JT-3, (2R,3S)-3-((9H-fluoren-9-yl)amino)-1-((cyclopropylmethyl)amino)-4-phenylbutan-2-ol]",pIC50 (+/−SEM) mGAT4,mGAT4,5.11 +/− 0.02
same,"changes in biochemical parameters (urea, creatinine, liver enzymes, ALP, amylase, LDH) compared to control",ICR-CD1 mice; 10 mg/kg (MTD) i.p.,no statistically significant changes
same,"histopathological changes (liver, kidneys)",ICR-CD1 mice; 10 mg/kg (MTD) i.p.,"only sporadic infiltration of neutrophils into the liver and adipose tissue was observed in two animals, without any signs of liver or kidney damage"
same,Body weight change at 24 h (%),ICR-CD1 mice; [1],−3.9%
same,Body weight change at 48 h (%),ICR-CD1 mice; [1],−0.4%
same,Drooping eyelids,ICR-CD1 mice; [1],+
same,General exhaustion,ICR-CD1 mice; [1],+
same,Hyper/Hypoventilation,ICR-CD1 mice; [1],+
same,Tremor,ICR-CD1 mice; [1],+
same,Body weight change at 24 h (%),ICR-CD1 mice; [2],−5.8%
same,Body weight change at 48 h (%),ICR-CD1 mice; [2],−5.2%
same,Convulsions,ICR-CD1 mice; [2],+
same,Drooping eyelids,ICR-CD1 mice; [2],+
same,General exhaustion,ICR-CD1 mice; [2],+
same,Hyper/Hypoventilation,ICR-CD1 mice; [2],+
same,Tremor,ICR-CD1 mice; [2],++
same,Body weight change at 24 h (%),ICR-CD1 mice; [3],−1.3%
same,Body weight change at 48 h (%),ICR-CD1 mice; [3],−2.4%
same,General exhaustion,ICR-CD1 mice; [3],+
same,Hyper/Hypoventilation,ICR-CD1 mice; [3],+
same,Tremor,ICR-CD1 mice; [3],+
same,Body weight change at 24 h (%),ICR-CD1 mice; [4],−1.2%
same,Body weight change at 48 h (%),ICR-CD1 mice; [4],−0.7%
same,General exhaustion,ICR-CD1 mice; [4],+
same,Hyper/Hypoventilation,ICR-CD1 mice; [4],+
same,Tremor,ICR-CD1 mice; [4],+
same,maximum tolerated dose (MTD),"ICR-CD1 mice; mice, i.p., doses tested 10, 20, 40 and 60 mg/kg",10 mg/kg
same,ALP,ICR-CD1 mice; [5],68.4 ± 27.2 U/L
same,ALT,ICR-CD1 mice; [5],29.0 ± 6.5 U/L
same,AST,ICR-CD1 mice; [5],56.8 ± 6.6 U/L
same,Amylase,ICR-CD1 mice; [5],2955 ± 501 U/L
same,LDH,ICR-CD1 mice; [5],275 ± 94 U/L
same,Urea,ICR-CD1 mice; [5],33.8 ± 8.2 mg/dL
same,"latency of entry into the dark compartment, recall phase (day 2) vs scopolamine control","Albino Swiss CD-1 mice; 10 mg/kg i.p., p<0.01",statistically significant difference
same,"latency of entry into the dark compartment, recall phase (day 2) vs scopolamine control",Albino Swiss CD-1 mice; 30 mg/kg i.p.,not active
same,"latency of entry into the dark compartment, recall phase (day 2) vs scopolamine control",Albino Swiss CD-1 mice; 60 mg/kg i.p.,not active
